Publication PMC10350552, “Investigation of the GnRH antagonist degarelix isomerization in biological matrices” (Pharmacology Research & Perspectives, 2023)
Where a SMILES comes first, the peptide text is derived from it. [ ]: non-standard residue; d: D form. The star is where a group is joined. dPhe(4-NHCONH2) = NC(=O)Nc1ccc(C[C@@H](N)C(=O)O)cc1; Dihydroorotyl(S) = O=C1C[C@@H](C(=O)*)NC(=O)N1; dPhe(4-Cl) = N[C@H](Cc1ccc(Cl)cc1)C(=O)O; Phe(4-NH2) = Nc1ccc(C[C@H](N)C(=O)O)cc1; d2Nal = N[C@H](Cc1ccc2ccccc2c1)C(=O)O; Lys(iPr) = CC(C)NCCCC[C@H](N)C(=O)O; X1 = O=C1NC(=O)[C@H](CC(=O)*)N1; d3Pal = N[C@H](Cc1cccnc1)C(=O)O

What was measured:
in vitro = conditions: male, human, plasma, pH 7.8
Protocol: Degarelix or 5‐Hyd‐degarelix test solutions (10 μL of 180 μg/mL degarelix or 5‐Aph(Hyd)‐degarelix in 20% acetonitrile) were each mixed with 890 μL of human plasma, Dulbecco buffer (5 mM NaH2PO4, 20 mM Na2HPO4, 5 mM KCl, 120 mM NaCl, adjusted to pH 7.4 with NaOH), 4.5% human serum albumin solution (HSA solution), and human serum albumin solution with 0.21 mg/mL warfarin: 3960 μL HSA solution +40 μL warfarin stock solution (21 mg warfarin in 1 mL water)to a final concentration of 2000 ng/mL of each analyte and 0.2% of acetonitrile. […] The samples were then diluted with 10 μL of the solution of 0.1% of formic acid in 20% acetonitrile and 70 μL of acetonitrile. The solutions were shaken and centrifuged. To 50 μL of the supernatant, 20 μL of water and 0.2% of formic acid were added and the solution was used for HPLC analysis. All the experiments were repeated three times.
The ANALYST software was used to integrate all peaks automatically by use of the IntelliQuan algorithm and to calculate the calibration curves of degarelix and 5‐Aph(Hyd)‐degarelix by linear regression with a weighting of 1/x ^2. The parameters for peak integrations were adapted for all samples in each analytical batch. The ANALYST software was used to calculate the concentrations of the test and QC samples based on the corresponding calibration curves.

[1] = Stability in 4.5% human serum albumin (HSA) solution without warfarin; type: in vitro ADME; conditions: 37°C, 2000 ng/mL, up to 48 h
Text: (§1) The solutions were shaken and centrifuged. […] All the experiments were repeated three times.

[2] = Stability in HSA solution with warfarin; type: in vitro ADME, human; conditions: 37°C, 2000 ng/mL, up to 48 h
Text: as §1

[3] = test system: human serum albumin (HSA); conditions: cited from earlier work
Text: After its approval by FDA in 2008, degarelix became the most widely used GnRH antagonist in patients with advanced prostate cancer.[17] The advantages of degarelix are its high affinity to the GnRH receptor, increased hydrophilicity, and decreased propensity to form gels. As a result, degarelix has better bioavailability than the previous GnRH antagonists. These improved characteristics are related to the presence of additional 4‐[(aminocarbonyl)amino]‐phenylalanine [Aph(Cbm)] and 4‐[(dihydroorotyl)amino]‐phenylalanine [Aph(Hor)] moieties, which afford multiple hydrogen‐bonding sites and permi ...

[4] = in vivo; cited from earlier work
[5] = test system: human cytochrome P450 system; conditions: cited from earlier work

Row | Compound | remaining at 8 h, 2000 ng/mL (in vitro) [%] | remaining at 24 h, 2000 ng/mL (in vitro) [%] | remaining at 32 h, 2000 ng/mL (in vitro) [%] | remaining at 48 h, 2000 ng/mL (in vitro) [%] | Change in the 5-Aph(Hyd)-degarelix content ([1]; 5-Aph(Hyd)-degarelix in 4.5% HSA solution without warfarin) | Formation of 5-Aph(Hyd)-degarelix from degarelix ([1]; degarelix in 4.5% HSA solution without warfarin, HPLC-MS/MS) | Change in the 5-Aph(Hyd)-degarelix content ([2]; 5-Aph(Hyd)-degarelix in HSA solution with warfarin) | Formation of 5-Aph(Hyd)-degarelix from degarelix ([2]; degarelix in 4.5% HSA solution with 0.21 mg/mL warfarin (equimolar to albumin), HPLC-MS/MS) | Binding to human serum albumin (HSA) [3] [%] | Time to reach the maximum concentration in the blood [4] [h] | Substrate for the human cytochrome P450 system [5]
1 | CC(=O)N[C@H](Cc1ccc2ccccc2c1)C(=O)N[C@H](Cc1ccc(Cl)cc1)C(=O)N[C@H](Cc1cccnc1)C(=O)N[C@@H](CO)C(=O)N[C@@H](Cc1ccc(NC(=O)C[C@@H]2NC(=O)NC2=O)cc1)C(=O)N[C@H](Cc1ccc(NC(N)=O)cc1)C(=O)N[C@@H](CC(C)C)C(=O)N[C@@H](CCCCNC(C)C)C(=O)N1CCC[C@H]1C(=O)N[C@H](C)C(N)=O [5‐Aph(Hyd)‐degarelix] (Ac-[d2Nal][dPhe(4-Cl)][d3Pal]S[Phe(4-NH2)](X1)[dPhe(4-NHCONH2)]L[Lys(iPr)]P[dA]-NH2) | 103 | 93 | 91 | 80 | we did not see any change | No 5‐Aph(Hyd)‐degarelix was observed | we did not see any change | No 5‐Aph(Hyd)‐degarelix was observed |  |  | 
2 | CC(=O)N[C@H](Cc1ccc2ccccc2c1)C(=O)N[C@H](Cc1ccc(Cl)cc1)C(=O)N[C@H](Cc1cccnc1)C(=O)N[C@@H](CO)C(=O)N[C@@H](Cc1ccc(NC(=O)[C@@H]2CC(=O)NC(=O)N2)cc1)C(=O)N[C@H](Cc1ccc(NC(N)=O)cc1)C(=O)N[C@@H](CC(C)C)C(=O)N[C@@H](CCCCNC(C)C)C(=O)N1CCC[C@H]1C(=O)N[C@H](C)C(N)=O [degarelix] (Ac-[d2Nal][dPhe(4-Cl)][d3Pal]S[Phe(4-NH2)](Dihydroorotyl(S))[dPhe(4-NHCONH2)]L[Lys(iPr)]P[dA]-NH2) | 104 | 92 | 91 | 74 |  |  |  |  | 76.3 | 37 to 42 | not a substrate
